# Test results published in ChEMBL document CHEMBL1158863, “Oxidations of vincristine catalyzed by peroxidase and ceruloplasmin” (J Nat Prod, 1997).
# Tested on: CCRF-CEM
# Assay: Cytotoxicity against human CCRF-CEM cells
# Type: functional, cell-based
row,Structure (SMILES),IC50 [µg/mL]
1,CC[C@H](O)C[C@@H]1CN(C=O)CCc2c([nH]c3ccccc23)[C@@](C(=O)OC)(c2cc3c(cc2OC)N(C=O)[C@H]2[C@@](O)(C(=O)OC)[C@H](OC(C)=O)[C@]4(CC)C=CCN5CC[C@]32[C@@H]54)C1,7.1
2,CCC(=O)C[C@@H]1CN(C=O)CCc2c([nH]c3ccccc23)[C@@](C(=O)OC)(c2cc3c(cc2OC)N(C)[C@H]2[C@](O)(C(=O)OC)[C@H](OC(C)=O)[C@]4(CC)C=CCN5CC[C@]32[C@@H]54)C1 [CATHARININE],7.7
3,CC[C@]1(O)C[C@@H]2CN(CCc3c([nH]c4ccccc34)[C@@](C(=O)OC)(c3cc4c(cc3OC)N(C)[C@H]3[C@@](O)(C(=O)OC)[C@H](OC(C)=O)[C@]5(CC)C=CCN6CC[C@]43[C@@H]65)C2)C1 [VINBLASTINE],0.03
4,CC[C@]1(O)C[C@H]2CN(CCc3c([nH]c4ccccc34)[C@@](C(=O)OC)(c3cc4c(cc3OC)N(C=O)[C@H]3[C@@](O)(C(=O)OC)[C@H](OC(C)=O)[C@]5(CC)C=CCN6CC[C@]43[C@@H]65)C2)C1 [VINCRISTINE],0.06
